Measurements: patent US9637460B2, “Isotopically enriched arylsulfonamide CCR3 antagonists” (Axikin Pharmaceuticals, Inc., priority 2012, dated 2017)
Where two headings read alike, the source gives them in different places.

Assays:
[1] = Pharmacokinetic studies in rats; conditions: rat, in vivo, 3 mg/kg, 3 mg/kg in EtOH/Solutol/H2O formulation
Method: Pharmacokinetic properties of 4-(3,5-dichloro-2,4,6-trideuteriumphenoxy)-3-(3-oxo-piperazine-1-sulfonyl)-2,5,6-trideuteriumbenzonitrile 36 and 4-(3,5-dichlorophenoxy)-3-(3-oxo-piperazine-1-sulfonyl)benzonitrile C1 were determined using rats. Animals were randomized into two groups, each having 3 rats. 4-(3,5-Dichloro-2,4,6-trideuteriumphenoxy)-3-(3-oxo-piperazine-1-sulfonyl)-2,5,6-trideuteriumbenzonitrile 36 and 4-(3,5-dichlorophenoxy)-3-(3-oxo-piperazine-1-sulfonyl)benzonitrile C1 were administered at 3 mg/kg in EtOH/Solutol/H2O formulations. Pharmacokinetic parameters of 4-(3,5-dichloro-2,4,6-trideuteriumphenoxy)-3-(3-oxo-piperazine-1-sulfonyl)-2,5,6-trideuteriumbenzonitrile 36 and 4-(3,5-dichlorophenoxy)-3-(3-oxo-piperazine-1-sulfonyl)benzonitrile C1 are summarized in Table 2. 4-(3,5-dichlorophenoxy)-3-(3-oxo-piperazine-1-sulfonyl)benzonitrile C1 was synthesized according to the procedure as described in U.S. Pat. App. Pub. No.: US 2011/0218207, the disclosure of which is incorporated herein by reference in its entirety.

| Cmax ([1]; Rat 1) | Tmax ([1]; Rat 1) | half-life ([1]; Rat 1) | AUC ([1]; Rat 1, read-out: AUC) | AUC ([1]; Rat 1, read-out: AUCnorm) | Cmax ([1]; Rat 2) | Tmax ([1]; Rat 2) | half-life ([1]; Rat 2) | AUC ([1]; Rat 2, read-out: AUC) | AUC ([1]; Rat 2, read-out: AUCnorm) | Cmax ([1]; Rat 3) | Tmax ([1]; Rat 3) | half-life ([1]; Rat 3) | AUC ([1]; Rat 3, read-out: AUC) | AUC ([1]; Rat 3, read-out: AUCnorm) | melting point | Structure (SMILES) |
| --- | --- | --- | --- | --- | --- | --- | --- | --- | --- | --- | --- | --- | --- | --- | --- | --- |
| 166 ng/mL | 2 h | 3.3 h | 820 ng·h/mL | 273 ng·h/mL | 46.3 ng/mL | 4 h | 1.12 h | 272 ng·h/mL | 90.6 ng·h/mL | 128 ng/mL | 0.3 h | 1.51 h | 490 ng·h/mL | 163 ng·h/mL | 207 to 210 °C | [2H]c1c(Cl)c([2H])c(Oc2c([2H])c([2H])c(C#N)c([2H])c2S(=O)(=O)N2CCNC(=O)C2)c([2H])c1Cl [Compound 36, 4-(3,5-dichloro-2,4,6-trideuteriumphenoxy)-3-(3-oxo-piperazine-1-sulfonyl)-2,5,6-trideuteriumbenzonitrile] |
| 34.4 ng/mL | 2 h | 5.52 h | 200 ng·h/mL | 66.6 ng·h/mL | 65.8 ng/mL | 4 h | 3.72 h | 450 ng·h/mL | 150 ng·h/mL | 59.9 ng/mL | 2 h | 4.04 h | 317 ng·h/mL | 106 ng·h/mL |  | N#Cc1ccc(Oc2cc(Cl)cc(Cl)c2)c(S(=O)(=O)N2CCNC(=O)C2)c1 [Compound C1, 4-(3,5-dichlorophenoxy)-3-(3-oxo-piperazine-1-sulfonyl)benzonitrile, reference compound] |
